# System: rat sciatic nerve crush injury model
# Assay: Macrophage phenotypes after sciatic nerve injury (immunohistological evaluation, rat sciatic nerve crush injury model)
# Format: in vivo
# Parameters: Number of M2 macrophages: unit: per mm^2
# Description: Effects of methylcobalamin on macrophage phenotypes after sciatic nerve injury were analyzed by an immunohistological evaluation method. Specifically, the analysis was carried out as follows. Using transverse nerve sections at 2.5 mm in the proximal direction, at the injury site, and at 2.5, 5.0, and 7.5 mm in the distal direction, macrophages were evaluated by immunofluorescence staining at 1, 3, 7, and 14 days after sciatic nerve injury. The proximal direction refers to a cell body side of an axon with respect to an injury site, and the distal direction refers to a terminal side of an axon with respect to an injury site. Each of the distances indicates a distance from the injury site (the same applies to Example 8). Macrophages were labeled with CD68, an M1 marker iNOS, and an M2 marker CD206. The proportion of M1 macrophage was calculated by the following formula: Proportion of M1 macrophage (%)=number of M1-marker positive macrophages per mm^2/number of macrophages per mm^2×100. A more detailed description will be provided below.
# Six-week-old male Wistar rats (about 200 g) were used. The left sciatic nerve was exteriorized, and crush injury of the sciatic nerve was made on the proximal side by forceps. The nerve was crushed for 10 seconds three times at 10-second intervals. The fascia and skin were sutured using 3-0 nylon. A non-injury group which underwent only sciatic nerve exposure, an untreated group, and a methylcobalamin treatment group were compared. To administer methylcobalamin continuously, an osmotic minipump was placed and left in the dorsal subcutaneous space, and methylcobalamin was administered at a dose of 1 mg/kg/day. In an untreated group, physiological saline was administered instead of methylcobalamin according to the same procedure.
# At 1, 3, 7, and 14 days after the surgery, rats were anesthetized with an anesthetic agent. The left sciatic nerve was collected, fixed with 4% PFA for 7 days and with 20% sucrose for 24 hours, and the fixed nerve was freeze-embedded. The embedded tissue was sliced into a 5-μm-thick slice in a nerve short-axis direction and placed on a glass slide. Slices were obtained from 5 positions of 2.5 mm in the proximal direction from an injured region, the injured region, and 2.5, 5.0, and 7.5 mm in the distal direction. The slices were dried for 1 hour and fixed with 95% methanol for 30 minutes. The fixed slices were blocked and allowed to react with primary antibodies at 4° C. overnight. The cells were further allowed to react with a secondary antibody at room temperature for 1 hour so that the nuclei were labeled with DAPI.
# The primary antibodies used were a mouse anti-CD68 monoclonal antibody (Abcam), a rabbit anti-iNOS monoclonal antibody (Abcam), a rabbit anti-CD206 monoclonal antibody (Abeam), a rabbit anti-neurofilament 200 (NF 200) polyclonal antibody (SIGMA), and a mouse anti-myelin basic protein (MBP) monoclonal antibody (Calbiochem). The secondary antibodies used were an Alexa 488-labeled goat anti-mouse IgG antibody (Life Technologies), an Alexa 488-labeled goat anti-rabbit IgG antibody (Life Technologies), an Alexa 568-labeled goat anti-mouse IgG antibody (Life Technologies), and an Alexa 568-labeled goat anti-rabbit IgG antibody (Life Technologies).
# [1] = POD1, 2.5 mm in the distal direction, 1 mg/kg/day
# [2] = POD1, 2.5 mm in the proximal direction, 1 mg/kg/day
# [3] = POD1, 5.0 mm in the distal direction, 1 mg/kg/day
# [4] = POD1, 7.5 mm in the distal direction, 1 mg/kg/day
# [5] = POD3, 2.5 mm in the distal direction, 1 mg/kg/day
# [6] = POD3, 2.5 mm in the proximal direction, 1 mg/kg/day
# [7] = POD3, 5.0 mm in the distal direction, 1 mg/kg/day
# [8] = POD3, 7.5 mm in the distal direction, 1 mg/kg/day
# [9] = POD7, 2.5 mm in the distal direction, 1 mg/kg/day
# [10] = POD7, 2.5 mm in the proximal direction, 1 mg/kg/day
# [11] = POD7, 5.0 mm in the distal direction, 1 mg/kg/day
# [12] = POD7, 7.5 mm in the distal direction, 1 mg/kg/day
# [13] = POD14, 2.5 mm in the distal direction, 1 mg/kg/day
# [14] = POD14, 2.5 mm in the proximal direction, 1 mg/kg/day
# [15] = POD14, 5.0 mm in the distal direction, 1 mg/kg/day
# [16] = POD14, 7.5 mm in the distal direction, 1 mg/kg/day
# [17] = POD14, Injury site, 1 mg/kg/day
smiles,measurement,setting,value
"C/C1=C2/[N-][C@H]([C@H](CC(N)=O)[C@@]2(C)CCC(=O)NC[C@@H](C)OP(=O)([O-])O[C@H]2[C@@H](O)[C@@H](n3cnc4cc(C)c(C)cc43)O[C@@H]2CO)[C@]2(C)N=C(/C(C)=C3N=C(/C=C4N=C1[C@@H](CCC(N)=O)C\4(C)C)[C@@H](CCC(N)=O)[C@]\3(C)CC(N)=O)[C@@H](CCC(N)=O)[C@]2(C)CC(N)=O.[CH3-].[Co+3] [MeCbl, methylcobalamin]",Number of M2 macrophages,"POD1, 2.5 mm in the distal direction",46.53
same,M1 macrophage ratio,[1],0.183
same,M2 macrophage ratio,[1],0.658
same,Number of M1 macrophages,[1],10.27 per mm^2
same,Number of macrophages,[1],64.37 per mm^2
same,Number of M2 macrophages,"POD1, 2.5 mm in the proximal direction",32.72
same,M1 macrophage ratio,[2],0.095
same,M2 macrophage ratio,[2],0.743
same,Number of M1 macrophages,[2],3.42 per mm^2
same,Number of macrophages,[2],40.53 per mm^2
same,Number of M2 macrophages,"POD1, 5.0 mm in the distal direction",33.90
same,M1 macrophage ratio,[3],0.109
same,M2 macrophage ratio,[3],0.765
same,Number of M1 macrophages,[3],4.40 per mm^2
same,Number of macrophages,[3],43.67 per mm^2
same,Number of M2 macrophages,"POD1, 7.5 mm in the distal direction",32.83
same,M1 macrophage ratio,[4],0.097
same,M2 macrophage ratio,[4],0.777
same,Number of M1 macrophages,[4],3.21 per mm^2
same,Number of macrophages,[4],35.68 per mm^2
same,Number of M2 macrophages,"POD1, Injury site",139.28
same,M1 macrophage ratio,"POD1, Injury site, 1 mg/kg/day",0.195
same,M2 macrophage ratio,"POD1, Injury site, 1 mg/kg/day",0.431
same,Number of M1 macrophages,"POD1, Injury site, 1 mg/kg/day",63.55 per mm^2
same,Number of macrophages,"POD1, Injury site, 1 mg/kg/day",336.86 per mm^2
same,Number of M2 macrophages,"POD3, 2.5 mm in the distal direction",147.74
same,M1 macrophage ratio,[5],0.165
same,M2 macrophage ratio,[5],0.693
same,Number of M1 macrophages,[5],23.50 per mm^2
same,Number of macrophages,[5],181.38 per mm^2
same,Number of M2 macrophages,"POD3, 2.5 mm in the proximal direction",43.76
same,M1 macrophage ratio,[6],0.068
same,M2 macrophage ratio,[6],0.708
same,Number of M1 macrophages,[6],3.04 per mm^2
same,Number of macrophages,[6],48.52 per mm^2
same,Number of M2 macrophages,"POD3, 5.0 mm in the distal direction",117.16
same,M1 macrophage ratio,[7],0.145
same,M2 macrophage ratio,[7],0.659
same,Number of M1 macrophages,[7],13.13 per mm^2
same,Number of macrophages,[7],135.88 per mm^2
same,Number of M2 macrophages,"POD3, 7.5 mm in the distal direction",115.48
same,M1 macrophage ratio,[8],0.186
same,M2 macrophage ratio,[8],0.694
same,Number of M1 macrophages,[8],15.57 per mm^2
same,Number of macrophages,[8],124.99 per mm^2
same,Number of M2 macrophages,"POD3, Injury site",603.12
same,M1 macrophage ratio,"POD3, Injury site, 1 mg/kg/day",0.163
same,M2 macrophage ratio,"POD3, Injury site, 1 mg/kg/day",0.479
same,Number of M1 macrophages,"POD3, Injury site, 1 mg/kg/day",198.96 per mm^2
same,Number of macrophages,"POD3, Injury site, 1 mg/kg/day",1261.77 per mm^2
same,Number of macrophages,"POD3, Injury site, 1 mg/kg/day, listed as methylcobalamin",significantly decreased
same,Number of M2 macrophages,"POD7, 2.5 mm in the distal direction",457.16
same,M1 macrophage ratio,[9],0.043
same,M2 macrophage ratio,[9],0.463
same,Number of M1 macrophages,[9],37.09 per mm^2
same,Number of macrophages,[9],921.92 per mm^2
same,Number of M2 macrophages,"POD7, 2.5 mm in the proximal direction",26.25
same,M1 macrophage ratio,[10],0.049
same,M2 macrophage ratio,[10],0.642
same,Number of M1 macrophages,[10],1.54 per mm^2
same,Number of macrophages,[10],36.63 per mm^2
same,Number of M2 macrophages,"POD7, 5.0 mm in the distal direction",432.13
same,M1 macrophage ratio,[11],0.039
same,M2 macrophage ratio,[11],0.505
same,Number of M1 macrophages,[11],25.29 per mm^2
same,Number of macrophages,[11],763.17 per mm^2
same,Number of M2 macrophages,"POD7, 7.5 mm in the distal direction",327.16
same,M1 macrophage ratio,[12],0.045
same,M2 macrophage ratio,[12],0.506
same,Number of M1 macrophages,[12],22.71 per mm^2
same,Number of macrophages,[12],584.14 per mm^2
same,Number of M2 macrophages,"POD7, Injury site",654.63
same,M1 macrophage ratio,"POD7, Injury site, 1 mg/kg/day",0.046
same,M2 macrophage ratio,"POD7, Injury site, 1 mg/kg/day",0.571
same,Number of M1 macrophages,"POD7, Injury site, 1 mg/kg/day",47.56 per mm^2
same,Number of macrophages,"POD7, Injury site, 1 mg/kg/day",1096.37 per mm^2
same,Number of macrophages,"POD7, Injury site, 1 mg/kg/day, listed as methylcobalamin",significantly decreased
same,Number of M2 macrophages,"POD14, 2.5 mm in the distal direction",443.91
same,M1 macrophage ratio,[13],0.033
same,M2 macrophage ratio,[13],0.459
same,Number of M1 macrophages,[13],27.86 per mm^2
same,Number of macrophages,[13],898.81 per mm^2
same,Number of M2 macrophages,"POD14, 2.5 mm in the proximal direction",35.65
same,M1 macrophage ratio,[14],0.039
same,M2 macrophage ratio,[14],0.638
same,Number of M1 macrophages,[14],2.34 per mm^2
same,Number of macrophages,[14],51.79 per mm^2
same,Number of M2 macrophages,"POD14, 5.0 mm in the distal direction",434.68
same,M1 macrophage ratio,[15],0.029
same,M2 macrophage ratio,[15],0.487
same,Number of M1 macrophages,[15],22.35 per mm^2
same,Number of macrophages,[15],827.51 per mm^2
same,Number of M2 macrophages,"POD14, 7.5 mm in the distal direction",417.86
same,M1 macrophage ratio,[16],0.024
same,M2 macrophage ratio,[16],0.487
same,Number of M1 macrophages,[16],15.59 per mm^2
same,Number of macrophages,[16],752.29 per mm^2
same,Number of M2 macrophages,"POD14, Injury site",560.45
same,M1 macrophage ratio,[17],0.025
same,M2 macrophage ratio,[17],0.610
same,Number of M1 macrophages,[17],21.33 per mm^2
same,Number of macrophages,[17],899.57 per mm^2
same,Number of macrophages,"POD14, Injury site, 1 mg/kg/day, listed as methylcobalamin",significantly decreased
same,numbers of M1 macrophages as compared to the untreated group,"all evaluation days (1, 3, 7, 14 days), 1 mg/kg/day",significantly decreased
same,numbers of M1 macrophages as compared to the untreated group,"distal portions, 7 and 14 days after the surgery, 1 mg/kg/day",significant differences
same,number of macrophages as compared to the untreated group,"distal positions, 14 days after the surgery, 1 mg/kg/day",significant difference
same,numbers of M2 macrophages as compared to the untreated group,"injury site, 1, 7 and 14 days after the surgery, 1 mg/kg/day",significantly increased
